Article PMC10018608 (Signal Transduction and Targeted Therapy, 2023)
Like-named read-outs stand apart in the source and are kept apart here.

Assays:
in vitro = format: cell-based; conditions: 72 h
Method: Cells were seeded and grown in 96 well plates overnight. Then various concentrations of compounds in fresh medium were added and incubated for 72 h. Using MTT (Sigma) assay to determine the cell viability.

[1] = tested on: SARS-CoV-2 Omicron BA.2 sublineage; format: in vivo, K18-hACE2 transgenic mice
[2] = for Corpora lutea / Implantation sites / Live embryos / Resorptions: cesarean section observation; for appearance malformation rate (%): fetal appearance
[3] = SD rats
[4] = Beagle Dog, i.v. (1 mg/kg)
[5] = Monkey
in vivo = conditions: male, beagle, dog
[6] = female, SD, rat, in vivo, 1000 mg/kg

`COC[C@@H](NC(=O)C1CCCC(F)(F)C1)C(=O)N[C@H](Cc1ccccc1)C(=O)C(=O)NCc1nccs1` (stereo partly drawn) [SY110, N-((R)-1-(((R)-3,4-dioxo-1-phenyl-4-((thiazol-2-ylmethyl)amino)butan-2-yl)amino)-3-methoxy-1-oxopropan-2-yl)-3,3-difluorocyclohexane-1-carboxamide] showed a CC50 (in vitro; African green monkey, VeroE6, MTT) greater than 500 µM, a CC50 (in vitro; human, BEAS-2B, MTT) greater than 500 µM and a CC50 (in vitro; human, HUVEC, MTT) greater than 500 µM. For the same molecule, the “lung pathology, H&E staining” value ([1]; mouse, in vivo) was “only scattered inflammatory cell infiltrates can be occasionally found in the alveolar interstitium”, the “viral N protein expression in the lung tissue” value ([1]; mouse, in vivo) was “substantially reduced the viral N protein expression” and the “production of the infectious virus particles in the lung” value ([1]; plaque assays, therapeutic treatment) was “effectively suppressed”. The “Abnormal initial position of common carotid artery” value [2, 6] was 0.0 ± 0.0, the “Abnormal initial position of subclavian artery” value [2, 6] was 0.0 ± 0.0 and the “Abnormal position of umbilical artery” value [2, 6] was 0.0 ± 0.0. For the same molecule, the “Absent of aortic arch” value [2, 6] was 0.0 ± 0.0, the “Absent of innominate artery” value [2, 6] was 0.0 ± 0.0 and the “Rib: 14 Ribs – [V]” value [2, 6] was 6.9 ± 10.1. The “Rib: Shortened #13 – [V]” value [2, 6] was 2.9 ± 6.4, the “Skull: Interparietal bone, incomplete ossification – [V]” value [2, 6] was 0.0 ± 0.0 and the “Skull: Parietal bone, incomplete ossification – [V]” value [2, 6] was 0.0 ± 0.0. The “Visceral malformation rate (%)” value [2, 6] was 0.0 ± 0.0%, the Corpora lutea ([2]; rat, 100 mg/kg) was 16.2 ± 2.1 and the Implantation sites ([2]; rat, 100 mg/kg) was 15.0 ± 3.5. For the same molecule, the Live embryos ([2]; rat, 100 mg/kg) was 14.5 ± 3.6, the Resorptions ([2]; rat, 100 mg/kg) was 0.5 ± 0.8 and the Corpora lutea ([2]; rat, 300 mg/kg) was 17.7 ± 1.5. The Implantation sites ([2]; rat, 300 mg/kg) was 16.9 ± 1.5, the Live embryos ([2]; rat, 300 mg/kg) was 16.3 ± 1.6 and the Resorptions ([2]; rat, 300 mg/kg) was 0.6 ± 0.5. The Corpora lutea ([2]; rat, 1000 mg/kg) was 17.4 ± 2.5, the Implantation sites ([2]; rat, 1000 mg/kg) was 17.0 ± 2.5 and the Live embryos ([2]; rat, 1000 mg/kg) was 16.4 ± 2.1. The Resorptions ([2]; rat, 1000 mg/kg) was 0.6 ± 0.9, the “appearance malformation rate (%)” value ([2]; rat, 100 mg/kg) was 0.0 ± 0.0% and the “appearance malformation rate (%)” value ([2]; rat, 300 mg/kg) was 0.0 ± 0.0%. The “appearance malformation rate (%)” value ([2]; rat, 1000 mg/kg) was 0.0 ± 0.0%, the “embryo-fetal development study outcome” value ([2]; rats, 1000 mg/kg/day (the highest dose tested)) was “no observed SY110-related maternal toxicity, reproductive toxicity, and effect on embryo-fetal viability” and the MTRlast ([3]; i.v. (1 mg/kg)) was 2.34 ± 0.22 h. It also gave a Vzobs ([3]; i.v. (1 mg/kg)) of 3.03 ± 0.71 L/kg, an MTRlast ([3]; p.o. (10 mg/kg)) of 6.60 ± 0.89 h and an MTRlast [4] of 0.47 ± 0.05 h. For the same molecule, the MTRlast ([5]; i.v. (1 mg/kg)) was 0.90 ± 0.18 h, the MTRlast ([5]; p.o. (10 mg/kg)) was 4.71 ± 0.89 h and the “no observed adverse effect level” value (14 days repeated dose toxicity study, text says rats) was 600 mg/kg. For the same molecule, the “Results, repeated dose two-week toxicity study” value (mice, p.o., 600 mg/kg, twice daily, 14 days) was “without death, significant body weight change, or pathological changes in the heart, liver, lung, kidney, or spleen”, the AUC(0-inf) (in vivo; iv, 1 mg/kg) was 628 ± 113 ng·h/mL and the AUC(0-t) (in vivo; iv, 1 mg/kg) was 624 ± 113 ng·h/mL. For the same molecule, the Cmax (in vivo; iv, 1 mg/kg) was 1270 ± 333 ng/mL, the Tmax (in vivo; iv, 1 mg/kg) was 4.98 min and the clearance (in vivo; iv, 1 mg/kg) was 27.1 mL/min/kg. The half-life (in vivo; iv, 1 mg/kg) was 36.6 ± 3 min, the AUC(0-inf) (in vivo; po, 10 mg/kg) was 8290 ± 378 ng·h/mL and the AUC(0-t) (in vivo; po, 10 mg/kg) was 8240 ± 370 ng·h/mL. For the same molecule, the Cmax (in vivo; po, 10 mg/kg) was 3060 ± 136 ng/mL, the Tmax (in vivo; po, 10 mg/kg) was 60 min and the bioavailability (in vivo; po, 10 mg/kg) was 132%. For the same molecule, the half-life (in vivo; po, 10 mg/kg) was 335 ± 74.4 min.
